Patent US20110065760A1, “COMPOUNDS FOR THE INHIBITION OF ROTAMASES AND USE THEREOF” (Jerini AG, priority 2002, published 2011)

Tests used:
hFKBP12 = hFKBP12 (Homo sapiens, UniProt P62942); assay: protease-coupled PPIase assay, hFKBP12; format: biochemical; conditions: 20 nM hFKBP12, substrate Suc-Ala-Phe-Pro-Phe-pNA, chymotrypsin, pH 7.8, 6° C.; read-out: IC50 class, Target T-2 (hFKBP12)
hCyp18 = hCyp18 (Homo sapiens, UniProt P62937); assay: protease-coupled PPIase assay, hCyp18; format: biochemical; conditions: 10 nM hCyp18, substrate Suc-Ala-Phe-Pro-Phe-pNA, chymotrypsin, pH 7.8, 6° C.; read-out: IC50 class, Target T-3 (hCyp18)
Papain = biological target: T1, Papain (Carica papaya, UniProt P00784); assay: papain assay; format: biochemical; conditions: 16 μg/ml papain, 2 mM Bz-DL-Arg-pNA, pH 6.5, 30° C., 30 min incubation; read-out: IC50 class, Target T-6 (Papain)
T1 sequence (P00784 134-345): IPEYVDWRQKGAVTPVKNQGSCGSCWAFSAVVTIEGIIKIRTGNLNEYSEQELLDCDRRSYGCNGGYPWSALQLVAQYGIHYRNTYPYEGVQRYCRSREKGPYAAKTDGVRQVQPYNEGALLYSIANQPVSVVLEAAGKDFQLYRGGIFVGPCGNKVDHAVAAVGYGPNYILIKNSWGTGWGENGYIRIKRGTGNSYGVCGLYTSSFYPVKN
Outline: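 Enzyme pre-incubated 30 min with 1-100 μM compound at 30° C, then pNA substrate added; 4-nitroaniline release read at 390 nm. Trypsin: 0.1 μg/ml, 120 μM Ac-Ala-Ala-Ser(PO3H2)-Pro-Arg-pNA, HEPES pH 7.8; cathepsin B: 0.2 μg/ml, 2 mM Z-Arg-Arg-pNA, phosphate/EDTA/Brij 35 pH 5.8; papain: 16 μg/ml, 2 mM Bz-DL-Arg-pNA, phosphate/L-Cys/EDTA pH 6.5.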

cathepsin B = cathepsin B (Homo sapiens, UniProt P07858); assay: cathepsin B assay; format: biochemical; conditions: 0.2 μg/ml cathepsin B, 2 mM Z-Arg-Arg-pNA, pH 5.8, 30° C., 30 min incubation; read-out: IC50 class, Target T-8 (Cathepsin)
Method: In order to investigate the impact of some of the inventive compounds on the activity of key proteases the following assay was performed: Protease activities were measured spectrophotometrically at 30° C. according to Schomburg and Salzmann (Schomburg, B.; Salzmann M. GBF: Enzyme Handbook. Springer Verlag, Berlin Heidelberg, 1991) and Bergmeyer et al. (Bergmeyer, H. U.; Bergmeyer, J.; Graβl, M. Methods of Enzymatic Analysis, Vol. V Enzymes 3: Peptides, Proteinases and Their Inhibitors. pp 55-371, VCH, Weinheim, 1988). The release of 4-nitroaniline was determined at 390 nm with a Spectramax Plus UV/Vis spectrophotometer (Molecular Devices). The cathepsin B assay was performed in a reaction mixture containing 0.2 μg/ml cathepsin B, 2 mM Z-Arg-Arg-pNA in 88 mM KH2PO4, 12 mM Na2HPO4, 1.33 mM EDTA, 0.03% Brij 35 (pH 5.8). The trypsin assay was carried out in a reaction mixture containing 0.1 μg/ml trypsin and 120 μM Ac-Ala-Ala-Ser(PO3H2)-Pro-Arg-pNA in 35 mM HEPES (pH 7.8) and the papain assay in a mixture consisting of 16 μg/ml papain and 2 mM Bz-DL-Arg-pNA in 10 mM Na2HPO4, 2 mM L-Cys, 5 mM EDTA (pH 6.5). In general, reactions were started by addition of peptide substrate after a 30 min incubation of 1-100 μM effector with given concentrations of enzyme.

[1] = WST-1 cytotoxicity assay, HL-60; format: cell-based; conditions: human, HL-60 cells (acute myeloid leukemia); WST-1, 48 h incubation; read-out: EC50 class, cytotoxic effect, CL-1 (HL-60)
Outline: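 Human tumour cell lines in culture were exposed to compounds at 37° C for 48 h, then given WST-1. Viability was read as formazan absorbance at (450 vs. 620) nm.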

HL-60 cells = assay: FACS measurements and TUNEL assay (Apo-Direct kit); format: cell-based, human; conditions: FIG. 2
Description: Enari M. Sakahira H. Yokoyama H. Okawa K. Iwamatsu A. Nagata S. A caspase-activated DNase that degrades DNA during apoptosis, and its inhibitor ICAD [erratum appears in Nature 1998 May 28; 393(6683):396.]. Nature. 391:43-50, 1998 • Darzynkiewicz Z. Juan G. Li X. Gorczyca W. Murakami T. Traganos F. Cytometry in cell necrobiology: analysis of apoptosis and accidental cell death (necrosis). Cytometry. 27:1-20, 1997
Apoptotic HL-60 cells were detected by FACS analysis of FITC-dUTP-labelled DNA breaks using the Apo-Direct kit (BD-Pharmingen) according to the manufacturer's protocol.

hFKBP12, sequence (P62942 whole entry): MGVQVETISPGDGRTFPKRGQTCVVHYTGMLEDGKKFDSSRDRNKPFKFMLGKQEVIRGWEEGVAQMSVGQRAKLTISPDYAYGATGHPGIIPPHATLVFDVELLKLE
hCyp18, sequence (P62937 whole entry): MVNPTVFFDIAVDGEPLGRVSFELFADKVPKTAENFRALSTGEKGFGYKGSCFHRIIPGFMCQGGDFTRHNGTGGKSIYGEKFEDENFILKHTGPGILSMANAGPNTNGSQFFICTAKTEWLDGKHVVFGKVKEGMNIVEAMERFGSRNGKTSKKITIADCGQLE

Cc1c(Cl)cc(NC(=O)NC(C)(C)CC(C)(C)C)c(O)c1Cl [Compound 102]
IC50 (hFKBP12): > 100 µM
IC50 (hCyp18): 10 to 50 µM
IC50 (Papain): 50 to 100 µM
IC50 (cathepsin B): 50 to 100 µM
EC50 at 48 h [1]: < 10 µM
induction of apoptosis (FACS analysis of FITC-dUTP-labelled DNA breaks) (HL-60 cells): induce apoptosis
